Measurements: patent US20240018135A1, “COMPOUND HAVING INHIBITORY ACTIVITY AGAINST O-GLUSACASE AND USE THEREOF” (MEDIFRON DBT INC., priority 2020, published 2024)

Columns and labels:
[1] = target: Human OGA (recombinant hOGA protein) (Homo sapiens (Human), UniProt O60502); assay: Human OGA enzyme activity assay (fluorescence, 4-Methylumbelliferyl N-acetyl-β-D-glucosaminide substrate); assay type: biochemical; details: for IC50: Table 1; for % of inhibition: Table 1, test concentration not given
[2] = target: bacterial homolog of O-GlcNAcase from Clostridium perfringens (Clostridium perfringens (strain 13 / Type A), UniProt Q8XL08); details: cited from earlier work
[3] = target: human O-GlcNAcase (Homo sapiens (Human), UniProt O60502); details: cited from earlier work
human O-GlcNAcase, sequence (O60502 whole entry): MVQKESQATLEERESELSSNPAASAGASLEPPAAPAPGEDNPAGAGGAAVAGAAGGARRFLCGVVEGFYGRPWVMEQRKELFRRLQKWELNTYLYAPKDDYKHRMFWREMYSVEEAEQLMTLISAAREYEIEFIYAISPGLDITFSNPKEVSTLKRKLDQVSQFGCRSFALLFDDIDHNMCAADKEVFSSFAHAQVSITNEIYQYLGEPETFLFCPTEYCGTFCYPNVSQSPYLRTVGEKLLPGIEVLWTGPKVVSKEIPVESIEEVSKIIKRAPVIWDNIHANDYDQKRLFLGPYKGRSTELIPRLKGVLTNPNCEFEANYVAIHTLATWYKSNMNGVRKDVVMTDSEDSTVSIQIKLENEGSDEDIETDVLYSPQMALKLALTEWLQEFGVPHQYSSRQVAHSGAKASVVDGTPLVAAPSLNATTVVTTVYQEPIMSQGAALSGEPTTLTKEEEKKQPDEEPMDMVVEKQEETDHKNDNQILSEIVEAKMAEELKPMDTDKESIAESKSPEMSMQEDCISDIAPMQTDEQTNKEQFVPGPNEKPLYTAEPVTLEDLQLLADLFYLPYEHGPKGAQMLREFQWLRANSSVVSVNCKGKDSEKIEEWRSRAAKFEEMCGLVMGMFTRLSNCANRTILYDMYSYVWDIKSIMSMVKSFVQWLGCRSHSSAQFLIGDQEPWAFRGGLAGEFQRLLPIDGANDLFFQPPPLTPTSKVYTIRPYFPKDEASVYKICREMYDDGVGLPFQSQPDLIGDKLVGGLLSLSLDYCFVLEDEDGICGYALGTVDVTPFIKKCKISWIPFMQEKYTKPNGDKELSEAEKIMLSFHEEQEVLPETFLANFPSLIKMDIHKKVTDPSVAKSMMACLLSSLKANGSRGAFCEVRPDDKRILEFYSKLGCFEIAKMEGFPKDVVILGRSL

Human OGA (recombinant hOGA protein), sequence (O60502 whole entry): as above
bacterial homolog of O-GlcNAcase from Clostridium perfringens, sequence (Q8XL08 31-1001 limits assumed): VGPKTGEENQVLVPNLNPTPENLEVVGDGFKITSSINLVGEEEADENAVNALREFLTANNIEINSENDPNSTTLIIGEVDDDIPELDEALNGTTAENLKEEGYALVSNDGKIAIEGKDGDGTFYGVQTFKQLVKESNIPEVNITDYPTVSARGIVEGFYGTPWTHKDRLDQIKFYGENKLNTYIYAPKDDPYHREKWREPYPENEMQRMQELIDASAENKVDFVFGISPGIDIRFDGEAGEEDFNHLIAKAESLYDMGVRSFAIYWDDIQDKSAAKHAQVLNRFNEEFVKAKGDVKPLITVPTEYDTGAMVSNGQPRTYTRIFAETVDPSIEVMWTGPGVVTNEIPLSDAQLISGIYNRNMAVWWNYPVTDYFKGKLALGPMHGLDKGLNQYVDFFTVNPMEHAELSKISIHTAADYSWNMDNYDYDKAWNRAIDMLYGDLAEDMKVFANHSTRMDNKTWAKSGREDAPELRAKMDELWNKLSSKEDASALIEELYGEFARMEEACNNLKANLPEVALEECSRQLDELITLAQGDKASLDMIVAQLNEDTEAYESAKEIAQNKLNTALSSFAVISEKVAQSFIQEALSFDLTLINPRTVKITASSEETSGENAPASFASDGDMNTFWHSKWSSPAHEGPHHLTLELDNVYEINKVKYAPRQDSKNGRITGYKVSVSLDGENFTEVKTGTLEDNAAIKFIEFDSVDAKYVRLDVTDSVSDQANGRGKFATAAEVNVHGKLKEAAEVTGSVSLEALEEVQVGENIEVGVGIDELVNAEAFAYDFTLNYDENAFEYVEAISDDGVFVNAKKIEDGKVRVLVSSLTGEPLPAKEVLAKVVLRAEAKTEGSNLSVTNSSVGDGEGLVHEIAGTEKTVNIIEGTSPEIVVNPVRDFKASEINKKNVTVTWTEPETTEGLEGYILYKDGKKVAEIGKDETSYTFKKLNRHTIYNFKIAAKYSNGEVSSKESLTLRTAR

Row | Structure (SMILES) | IC50 [1] | % of inhibition [1] | melting point | efficacy [2] | Ki [3]
1 | CC(=O)Nc1ncc(CN2CCN(CC(=O)Nc3ccc(N4CCN(C(C)=O)CC4)cc3)CC2C)s1 (centres unmarked) [Compound A-37, 2-(4-((2-acetamidothiazol-5-yl)methyl)-3-methylpiperazin-1-yl)-N-(4-(4-acetylpiperazin-1-yl)phenyl)acetamide] | 70 nM | 98.4% | 232 °C |  | 
2 | CC(=O)Nc1ncc(CN2CCN(CC(=O)Nc3ccc(Cc4ccccc4)cc3)CC2)s1 [Compound A-38, 2-(4-((2-acetamidothiazol-5-yl)methyl)piperazin-1-yl)-N-(4-benzylphenyl)acetamide] | 370 nM | 90.8% | 132 to 134 °C |  | 
3 | CC(=O)Nc1ncc(CN2CCN(CC(=O)Nc3ccc(Cc4ccccc4)cc3)CC2C)s1 (centres unmarked) [Compound A-39, 2-(4-((2-acetamidothiazol-5-yl)methyl)-3-methylpiperazin-1-yl)-N-(4-benzylphenyl)acetamide] | 60 nM | 98.8% | 193 to 195 °C |  | 
4 | CC(=O)Nc1ncc(CN2CCN(CC(=O)NCc3ccc(-c4ccccc4)cc3)CC2)s1 [Compound A-40, N-([1,1′-biphenyl]-4-ylmethyl)-2-(4-((2-acetamidothiazol-5-yl)methyl)piperazin-1-yl)acetamide] | 210 nM | 97.7% | 167 to 170 °C |  | 
5 | CC(=O)Nc1ncc(CN2CCN(CC(=O)NCc3ccc(-c4ccccc4)cc3)CC2C)s1 (centres unmarked) [Compound A-41, N-([1,1′-biphenyl]-4-ylmethyl)-2-(4-((2-acetamidothiazol-5-yl)methyl)-3-methylpiperazin-1-yl)acetamide] | 30 nM | 99.6% | 215 to 216 °C |  | 
6 | CC(=O)Nc1ncc(CN2CCC(C(=O)Nc3ccccc3)CC2)s1 [Compound B-1, 1-((2-acetamidothiazol-5-yl)methyl)N-phenylpiperidine-4-carboxamide] | 870 nM | 87.0% | 172 to 174 °C |  | 
7 | CC(=O)Nc1ncc(CN2CCC(C(=O)Nc3ccc(Cl)cc3)CC2)s1 [Compound B-2, 1-((2-acetamidothiazol-5-yl)methyl)-N-(4-chlorophenyl)piperidine-4-carboxamide] | 270 nM | 91.0% | 258 to 260 °C |  | 
8 | CC(=O)Nc1ncc(CN2CCC(C(=O)Nc3ccc(C(C)C)cc3)CC2)s1 [Compound B-3, 1-((2-acetamidothiazol-5-yl)methyl)-N-(4-isopropylphenyl)piperidine-4-carboxamide] | 680 nM | 91.8% | 257 to 258 °C |  | 
9 | CC(=O)Nc1ncc(CN2CCC(C(=O)Nc3cnccn3)CC2)s1 [Compound B-4, 1-((2-acetamidothiazol-5-yl)methyl)-N-(pyrazin-2-yl)piperidine-4-carboxamide] |  | 66.9% | 178 to 180 °C |  | 
10 | CC(=O)Nc1ncc(CN2CCC(C(=O)NC3CCCCC3)CC2)s1 [Compound B-5, 1-((2-acetamidothiazol-5-yl)methyl)-N-cyclohexylpiperidine-4-carboxamide] |  | 46.7% | 231 to 232 °C |  | 
11 | CC(=O)Nc1ncc(CN2CCC(C(=O)Nc3ccc4ncccc4c3)CC2)s1 [Compound B-6, 1-((2-acetamidothiazol-5 yl)methyl)-N-(quinolin-6-yl)piperidine-4-carboxamide] | 320 nM | 91.4% | 234 to 236 °C |  | 
12 | CC(=O)Nc1ncc(CN2CCC(C(=O)NCc3ccccc3)CC2)s1 [Compound B-7, 1-((2-acetamidothiazol-5-yl)methyl)-N-benzylpiperidine-4-carboxamide] | 1000 nM | 88.2% | 176 to 178 °C |  | 
13 | COc1ccc(CNC(=O)C2CCN(Cc3cnc(NC(C)=O)s3)CC2)cc1 [Compound B-8, 1-((2-acetamidothiazol-5-yl)methyl)-N-(4-methoxybenzyl)piperidine-4-carboxamide] | 860 nM | 93.9% | 215 to 217 °C |  | 
14 | CC(=O)Nc1ncc(CN2CCC(C(=O)NC(C)c3ccc4c(c3)OCO4)CC2)s1 (centres unmarked) [Compound B-9, 1-((2-acetamidothiazol-5-yl)methyl)-N-(1-(benzo[d][1,3]dioxol-5-yl)ethyl)piperidine-4-carboxamide] | 1010 nM | 93.1% | 211 to 213 °C |  | 
15 | CC(=O)Nc1ncc(CN2CCC(C(=O)NC(C)c3ccccc3)CC2)s1 (centres unmarked) [Compound B-10, 1-((2-acetamidothiazol-5-yl)methyl)-N-(1-phenylethyl)piperidine-4-carboxamide] | 900 nM | 93.3% | 178 to 179 °C |  | 
16 | CC(=O)Nc1ncc(CN2CCC(C(=O)OC(C)c3ccc4c(c3)OCO4)CC2)s1 (centres unmarked) [Compound B-13, 1-(benzo[d][1,3]dioxol-5 yl)ethyl 1-((2-acetamidothiazol-5-yl)methyl)piperidine-4-carboxylate] | 60 nM | 98.9% | 215 to 217 °C |  | 
17 | CC(=O)Nc1ncc(CN2CCCC(C(=O)Nc3ccccc3)C2)s1 (centres unmarked) [Compound B-16, 1-((2-acetamidothiazol-5-yl)methyl)-N-phenylpiperidine-3-carboxamide] | 230 nM | 95.5% | 257 to 259 °C |  | 
18 | CC(=O)Nc1ncc(CN2CCCC(C(=O)Nc3ccc(F)cc3)C2)s1 (centres unmarked) [Compound B-17, 1-((2-acetamidothiazol-5-yl)methyl)-N-(4-fluorophenyl)piperidine-3-carboxamide] | 340 nM | 96.7% | 127 to 129 °C |  | 
19 | CC(=O)Nc1ncc(CN2CCCC(C(=O)Nc3ccc(C(C)C)cc3)C2)s1 (centres unmarked) [Compound B-18, 1-((2-acetamidothiazol-5-yl)methyl)-N-(4-isopropylphenyl)piperidine-3-carboxamide] | 240 nM | 96.4% | 234 to 236 °C |  | 
20 | CC(=O)Nc1ncc(CN2CCCC(C(=O)NC3CCCCC3)C2)s1 (centres unmarked) [Compound B-19, 1-((2-acetamidothiazol-5 yl)methyl)-N-cyclohexylpiperidine-3-carboxamide] | 450 nM | 97.6% | 265 to 267 °C |  | 
21 | CC(=O)Nc1ncc(CN2CCC(=CC(=O)Nc3ccccc3)CC2)s1 [Compound C-1, 2-(1-((2-acetamidothiazol-5-yl)methyl)piperidin-4-ylidene)-N-phenylacetamide] | 310 nM | 96.2% | 184 to 185 °C |  | 
22 | CC(=O)Nc1ncc(CN2CCC(=CC(=O)Nc3ccc(F)cc3)CC2)s1 [Compound C-2, 2-(1-((2-acetamidothiazol-5-yl)methyl)piperidin-4-ylidene)-N-(4-fluorophenyl)acetamide] | 170 nM | 97.1% | 189 to 191 °C |  | 
23 | CC(=O)Nc1ncc(CN2CCC(=CC(=O)Nc3ccc(Cl)cc3)CC2)s1 [Compound C-3, 2-(1-((2-acetamidothiazol-5-yl)methyl)piperidin-4-ylidene)-N-(4-chlorophenyl)acetamide] | 140 nM | 97.3% | 225 to 228 °C |  | 
24 | CC(=O)Nc1ncc(CN2CCC(=CC(=O)Nc3ccc(C(C)C)cc3)CC2)s1 [Compound C-4, 2-(1-((2-acetamidothiazol-5-yl)methyl)piperidin-4-ylidene)-N-(4-isopropylphenyl)acetamide] | 230 nM | 97.0% | 232 to 236 °C |  | 
25 | COc1ccc(NC(=O)C=C2CCN(Cc3cnc(NC(C)=O)s3)CC2)cc1 [Compound C-5, 2-(1-((2-acetamidothiazol-5-yl)methyl)piperidin-4 ylidene)-N-(4-methoxyphenyl)acetamide] | 450 nM | 94.8% | 212 to 214 °C |  | 
26 | COc1ccc(NC(=O)C=C2CCN(Cc3cnc(NC(C)=O)s3)CC2)cc1OC [Compound C-6, 2-(1-((2-acetamidothiazol-5-yl)methyl)piperidin-4-ylidene)-N-(3,4-dimethoxyphenyl)acetamide] | 350 nM | 95.8% | 214 to 219 °C |  | 
27 | COc1ccc(CNC(=O)C=C2CCN(Cc3cnc(NC(C)=O)s3)CC2)cc1 [Compound C-7, 2-(1-((2-acetamidothiazol-5-yl)methyl)piperidin-4-ylidene)-N-(4-methoxybenzyl)acetamide] | 80 nM | 98.2% | 222 to 224 °C |  | 
28 | CC(=O)Nc1ncc(CN2CCC(=CC(=O)NC3CCCCC3)CC2)s1 [Compound C-8, 2-(1-((2-acetamidothiazol-5-yl)methyl)piperidin-4-ylidene)-N-cyclohexylacetamide] |  | 97.7% | 222 to 224 °C |  | 
29 | CC(C)C(=O)N[C@H]1c2nc(CCc3ccccc3)cn2[C@H](CO)[C@@H](O)[C@@H]1O [GlcNAcstatin] |  |  |  | picomolar | 
30 | CC(=O)N[C@H]1c2nc(CC(=O)O)cn2[C@H](CO)[C@@H](O)[C@@H]1O [gluco-nagstatin] |  |  |  |  | 420 nM
